The structures appear in SMILES notation. Several values for one entry are separate records, joined by “and”; a condition that tells them apart may be missing. Equal entries are not always repeated.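 Tested at 5 concentrations; 48 h exposure; 96-well plates; endpoints linearly interpolated, else capped at highest concentration. At the GI50, growth is halved. TGI: concentration producing complete growth inhibition.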 Bounds are passed on as bounds.

Consider 25 compounds from PubChem BioAssay (NCI).

The subject of this assay is MDA-MB-468 breast. The experiment in a line: DTP human tumour cell line panel, 48 h.
Consider `O=[N+]([O-])c1ccc2c(c1)C(c1ccccc1Cl)=Nc1cn[nH]c1N2`, for which the GI50 is 12500 nM and the TGI is more than 25000 nM.

For the compound `O=C(O)c1ccc(-n2c(=O)n(-c3cccc(C(F)(F)F)c3)c(=O)c3cc(-c4ccc(F)cc4F)ccc32)cc1`, the GI50 is 2160 nM and the TGI stood at 5940 nM.

Consider `CCc1ccccc1NC(=O)c1sc2nc3c(cc2c1N)C(=O)CCC3`, for which the GI50 is 235 nM and the TGI stood at 44700 nM.

With `Cn1cc(C2=C(c3cn(CCCCCN)c4ccccc34)C(=O)NC2=O)c2ccccc21`, the GI50 was 7540 nM and the TGI was more than 25000 nM.

Take `COc1ccc2ncn(-c3cc(O[C@H](C)c4ccccc4Cl)c(C(N)=O)s3)c2c1`: the GI50 is 6.67 nM and the TGI is 40 nM.

Regarding `COc1cc2c3c(n(CCCN4CCC[C@H]4C(N)=O)c(=O)c2cc1OC)-c1cc2c(cc1C3=O)OCO2`, the GI50 is 45.6 nM and the TGI came to 316 nM.

On to `Cc1ccc(S(=O)(=O)NCCNc2nccc(-c3c(-c4ccc(F)cc4)nc4sccn34)n2)cc1`, for which the GI50 is 4200 nM and the TGI was more than 100000 nM.

For `O=C(COc1ccc(/C=C2\CSc3ccccc3C2=O)cc1)Nc1nccs1`, the GI50 was 1840 nM and the TGI is 4000 nM.

For the compound `Cc1cc[c-]cc1.Fc1c[c-]c(-c2ccccn2)c(F)c1.[Pt+2].c1ccc(P(C[PH+](c2ccccc2)c2ccccc2)c2ccccc2)cc1`, the GI50 was 1550 nM and the TGI was 5550 nM.

In the case of `Nc1nc(SN=Nc2ccc(S(N)(=O)=O)cc2)c2[nH]cnc2n1`, the GI50 is 284 nM and the TGI came to 4110 nM.

Turning to `CN1CCN(c2ccc(Nc3nc(NCCCNS(=O)(=O)c4ccc(Cl)cc4)c4sccc4n3)cc2)CC1`, the GI50 was 4030 nM and the TGI came out at 16300 nM.

Turning to `NC(N)=NCCCCCNc1noc(Cc2c[nH]c3cc(Br)ccc23)n1`, the GI50 is 2010 nM and the TGI worked out at 7040 nM.

For `COc1cc2c(c(OC)n1)[C@]1(O)[C@H](O)[C@H](CN(C)C)[C@@H](c3ccccc3)[C@]1(c1ccc(C#N)cc1)O2`, the 50% growth inhibitory concentration (GI50) was < 15.7 nM and 15.8 nM; the TGI is 482 nM and 1440 nM.

`C[C@]12CCc3nc(Nc4ccccc4)sc3C1=CC[C@@H]1[C@@H]2CC[C@]2(C)/C(=N/NC(N)=S)CC[C@@H]12`: the GI50 is 1870 nM and the TGI was found to be 5380 nM.

For `C=C1C(=O)O[C@H]2[C@H]1CC/C(COC(=O)c1ccc(Cl)nc1)=C\CC[C@@]1(C)O[C@@H]21`, the GI50 was 1210 nM and the TGI came to 3500 nM.

As to `Cc1cc(N/N=C/c2nc(-c3ccc(Br)cc3)oc2C)c2cc(Br)ccc2n1`, the GI50 is 1750 nM and the TGI came to 4850 nM.

As to `CCC(C)(C)c1ccc(OCCCCCCN2CCNCC2)cc1`, the GI50 is 1760 nM and the TGI was 3470 nM.

Turning to `COc1cc(OC)c(S(N)(=O)=O)cc1C(=O)/C=C/c1ccc(Cl)cc1`, the GI50 is 1450 nM and the TGI amounted to 3080 nM.

With `COc1cc(C2=C(c3cn(C)c4ccccc34)COC2=O)cc(OC)c1OC`, the GI50 was 31.9 nM and the TGI worked out at 380 nM.

In the case of `CCn1c(CO)nn(-c2cc(O[C@@H](C)C(F)(F)F)c(C(=O)Nc3c(F)cccc3Cl)cc2F)c1=O`, the GI50 is 3280 nM and the TGI was more than 72300 nM.

On to `CN(CCCNC(=O)Cc1ccc2ccc3cccc4ccc1c2c34)CCCNc1cc(-c2ccc3ccccc3c2)nc2ccccc12`, for which the GI50 is 1420 nM and the TGI was 2750 nM.

`CC(C)S(=O)(=O)c1ccccc1Nc1nc(Nc2cccc(NC(=O)CN)c2)ncc1Cl`: the GI50 was 99.9 nM and the TGI stood at 1860 nM.

Consider `O=C(/C=C/c1cc(CN2CCOCC2)c(O)c2ncccc12)c1cc(CN2CCOCC2)c(O)c2ncccc12`, for which the GI50 was 34.6 nM and the TGI was determined as 683 nM.

Consider `O=C(Nc1ccc(Br)cc1)c1ccc(Cl)c(Cl)c1`, for which the GI50 is 7500 nM and the TGI is more than 100000 nM.

On to `CC(C)N=c1cc2n(-c3ccc(Cl)cc3)c3ccccc3nc-2cc1Nc1ccc(Cl)cc1`, for which the GI50 was 560 nM and the TGI worked out at 1670 nM.

Usually GI50 stands for the concentration giving 50% growth inhibition. By TGI is commonly meant the concentration giving total growth inhibition. A high value points to less potent growth arrest.
